According to patent US6599529B1, “Modified release multiple-units compositions of non-steroid anti-inflammatory drug substances (NSAIDs)” (Nycomed Danmark A/S, priority 1997, dated 2003):

How the values were obtained:
[1] = in water and 0.1 N HCl at room temperature; cited from earlier work
[2] = Solubility in 0.1 N HCl / water; type: physicochemical
[3] = cited from earlier work

In the case of `COc1ccc2c(c1)c(CC(=O)O)c(C)n2C(=O)c1ccc(Cl)cc1` [indometacin], the “solubility (in words)” value [1] is given as “practically insoluble”.
For `CN1C(C(=O)Nc2ccccn2)=C(O)c2sc(Cl)cc2S1(=O)=O` [lornoxicam], the solubility ([2]; at a pH corresponding to 0.1 N HCl, room temperature) is given as “less than 1 mg/100 ml”, the solubility ([2]; in 0.1 N HCl (aqueous solution of 0.1 N hydrochloric acid)) is given as < 1 mg/100 ml and the pKa value [3] is given as “about 4.7”.
In the case of `CC(=O)Oc1ccccc1C(=O)O` [acetylsalicylic acid], the “solubility (in words)” value [1] is given as “practically insoluble”.
